Measured values: patent US20150148377A1, “Quinoline Derivatives” (NOVARTIS AG, priority 2011, published 2015)

How the values were obtained:
PI3K alpha = target: T1, PI3K alpha (Homo sapiens, UniProt P42336); assay: Enzymatic PI3K alpha isoform inhibition (lipid kinase activity, Kinase-Glo); format: biochemical; settings: enzymatic assay
T1 construct: His tag (C); made in house; host or cells: baculovirus; Tn5 (Trichoplusia ni) or TiniPro insect cells
Description: The kinase reaction is performed in a final volume of 50 μl per well of a half area COSTAR, 96 well plate. The final concentrations of ATP and phosphatidyl inositol in the assay are 5 μM and 6 μg/mL, respectively. The reaction is started by the addition of PI3 kinase, e.g. PI3 kinase δ.
(§1) In a more preferred assay, the kinase reaction is performed in a final volume of 10 μl per well of a low volume non-binding CORNING, 384 well black plate (Cat. No. #3676). The final concentrations of ATP and phosphatidyl inositol (PI) in the assay are 1 μM and 10 μg/mL, respectively. The reaction is started by the addition of ATP.
(§2) The components of the assay are added per well as follows:
(§3) 50 nl test compounds in 90% DMSO per well, in columns 1-20, 8 concentrations (1/3 and 1/3.33 serial dilution step) in single. • Low control: 50 nl of 90% DMSO in half the wells of columns 23-24 (0.45% in final). • High control: 50 nl of reference compound (e.g. compound of Example 7 in WO 2006/122806) in the other half of columns 23-24 (2.5 μM in final). • Standard: 50 nl of reference compound as just mentioned diluted as the test compounds in columns 21-22. • 20 mL ‘buffer’ are prepared per assay: • 200 μl of 1M TRIS HCl pH7.5 (10 mM in final) • 60 μl of 1M MgCl2 (3 mM in final) • 500 μl of 2M NaCl (50 mM in final) • 100 μl of 10% CHAPS (0.05% in final) • 200 μl of 100 mM DTT (1 mM in final) • 18.94 mL of nanopure water • 10 mL ‘PI’ are prepared per assay: • 200 μl of 1 mg/mL 1-alpha-Phosphatidylinositol (Liver Bovine, Avanti Polar Lipids Cat. No. 840042C MW=909.12) prepared in 3% OctylGlucoside (10 μg/mL in final) • 9.8 mL of ‘buffer’ • 10 mL ‘ATP’ are prepared per assay: • 6.7 μl of 3 mM stock of ATP giving a final concentration of 1 μM per well • 10 mL of ‘buffer’ • 2.5 mL of each PI3K construct are prepared per assay in ‘PI’ with the following final concentration: • 10 nM PI3K alfa EMV B1075 • 25 nM beta EMV BV949 • 10 nM delta EMV BV1060 • 150 nM gamma EMV BV950 • 5 μl of ‘PI/PI3K’ are added per well. • 5 μl ‘ATP’ are added per well to start the reaction. • The plates are then incubated at room temperature for 60 minutes (alfa, beta, delta) or 120 minutes (gamma). • The reaction is terminated by the addition of 10 μl Kinase-Glo (Promega Cat. No. #6714). • The assay plates are read after 10 minutes in Synergy 2 reader (BioTek, Vermont USA) with an integration time of 100 milliseconds and sensitivity set to 191. • Output: The High control is around 60'000 counts and the Low control is 30'000 or lower • This luminescence assay gives a useful Z′ ratio between 0.4 and 0.7
(§4) IC50 is determined by a four parameter curve fitting routine that comes along with “excel fit”. A four parameter logistic equation is used to calculate IC50 values (IDBS XLfit) of the percentage inhibition of each compound at 8 concentrations (usually 10, 3.0, 1.0, 0.3, 0.1, 0.030, 0.010 and 0.003 μM). Alternatively, IC50 values are calculated using idbsXLfit model 204, which is a 4 parameter logistic model.
(§5) Yet alternatively, for an ATP depletion assay, compounds of the formula I to be tested are dissolved in DMSO and directly distributed into a white 384-well plate at 0.5 μl per well. To start the reaction, 10 μl of 10 nM PI3 kinase and 5 μg/mL 1-alpha-phosphatidylinositol (PI) are added into each well followed by 10 μl of 2 μM ATP. The reaction is performed until approx 50% of the ATP is depleted, and then stopped by the addition of 20 μl of Kinase-Glo solution (Promega Corp., Madison, Wis., USA). The stopped reaction is incubated for 5 minutes and the remaining ATP is then detected via luminescence. IC50 values are then determined.

PI3K delta = target: T2, PI3K delta (Homo sapiens, UniProt O00329); assay: Enzymatic PI3K delta isoform inhibition (lipid kinase activity, Kinase-Glo); format: biochemical; settings: enzymatic assay
T2 construct: for the full-length p110-d subunit are generated and fused by overlapping PCR; His tag (C); made in house; host or cells: baculovirus; Tn5 (Trichoplusia ni) or TiniPro insect cells
Description: as §1, §2, §3, §4, §5

T1 sequence (P42336 with tags, fused parts or gaps limits assumed): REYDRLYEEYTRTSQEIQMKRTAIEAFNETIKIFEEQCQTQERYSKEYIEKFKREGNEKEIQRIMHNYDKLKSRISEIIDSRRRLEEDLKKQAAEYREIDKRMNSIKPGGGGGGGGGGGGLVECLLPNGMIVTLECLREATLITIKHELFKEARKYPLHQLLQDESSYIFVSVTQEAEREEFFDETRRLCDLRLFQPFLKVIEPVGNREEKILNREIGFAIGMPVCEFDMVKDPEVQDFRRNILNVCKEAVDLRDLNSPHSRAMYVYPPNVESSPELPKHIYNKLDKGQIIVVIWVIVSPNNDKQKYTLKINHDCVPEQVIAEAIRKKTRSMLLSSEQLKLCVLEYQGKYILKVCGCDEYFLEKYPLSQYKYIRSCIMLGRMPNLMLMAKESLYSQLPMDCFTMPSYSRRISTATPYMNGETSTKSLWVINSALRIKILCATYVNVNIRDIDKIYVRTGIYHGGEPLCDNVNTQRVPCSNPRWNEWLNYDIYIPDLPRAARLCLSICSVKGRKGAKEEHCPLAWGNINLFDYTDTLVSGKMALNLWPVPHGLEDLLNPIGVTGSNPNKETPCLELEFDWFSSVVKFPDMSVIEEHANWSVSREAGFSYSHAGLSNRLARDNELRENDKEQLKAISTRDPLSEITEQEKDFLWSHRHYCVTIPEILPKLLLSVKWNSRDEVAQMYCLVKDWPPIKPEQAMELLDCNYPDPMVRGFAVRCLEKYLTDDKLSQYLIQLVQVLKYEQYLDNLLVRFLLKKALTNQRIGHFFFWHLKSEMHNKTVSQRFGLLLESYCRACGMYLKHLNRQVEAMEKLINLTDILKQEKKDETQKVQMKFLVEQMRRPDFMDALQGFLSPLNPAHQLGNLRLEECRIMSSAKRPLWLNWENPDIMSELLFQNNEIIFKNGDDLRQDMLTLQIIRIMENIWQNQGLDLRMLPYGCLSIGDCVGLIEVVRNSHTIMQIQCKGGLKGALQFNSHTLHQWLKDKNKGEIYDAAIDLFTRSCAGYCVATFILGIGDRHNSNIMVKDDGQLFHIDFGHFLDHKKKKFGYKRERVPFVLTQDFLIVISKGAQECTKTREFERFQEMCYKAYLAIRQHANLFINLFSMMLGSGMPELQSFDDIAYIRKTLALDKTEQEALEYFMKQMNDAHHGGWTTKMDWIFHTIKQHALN
T2 sequence (O00329 with tags, fused parts or gaps limits assumed): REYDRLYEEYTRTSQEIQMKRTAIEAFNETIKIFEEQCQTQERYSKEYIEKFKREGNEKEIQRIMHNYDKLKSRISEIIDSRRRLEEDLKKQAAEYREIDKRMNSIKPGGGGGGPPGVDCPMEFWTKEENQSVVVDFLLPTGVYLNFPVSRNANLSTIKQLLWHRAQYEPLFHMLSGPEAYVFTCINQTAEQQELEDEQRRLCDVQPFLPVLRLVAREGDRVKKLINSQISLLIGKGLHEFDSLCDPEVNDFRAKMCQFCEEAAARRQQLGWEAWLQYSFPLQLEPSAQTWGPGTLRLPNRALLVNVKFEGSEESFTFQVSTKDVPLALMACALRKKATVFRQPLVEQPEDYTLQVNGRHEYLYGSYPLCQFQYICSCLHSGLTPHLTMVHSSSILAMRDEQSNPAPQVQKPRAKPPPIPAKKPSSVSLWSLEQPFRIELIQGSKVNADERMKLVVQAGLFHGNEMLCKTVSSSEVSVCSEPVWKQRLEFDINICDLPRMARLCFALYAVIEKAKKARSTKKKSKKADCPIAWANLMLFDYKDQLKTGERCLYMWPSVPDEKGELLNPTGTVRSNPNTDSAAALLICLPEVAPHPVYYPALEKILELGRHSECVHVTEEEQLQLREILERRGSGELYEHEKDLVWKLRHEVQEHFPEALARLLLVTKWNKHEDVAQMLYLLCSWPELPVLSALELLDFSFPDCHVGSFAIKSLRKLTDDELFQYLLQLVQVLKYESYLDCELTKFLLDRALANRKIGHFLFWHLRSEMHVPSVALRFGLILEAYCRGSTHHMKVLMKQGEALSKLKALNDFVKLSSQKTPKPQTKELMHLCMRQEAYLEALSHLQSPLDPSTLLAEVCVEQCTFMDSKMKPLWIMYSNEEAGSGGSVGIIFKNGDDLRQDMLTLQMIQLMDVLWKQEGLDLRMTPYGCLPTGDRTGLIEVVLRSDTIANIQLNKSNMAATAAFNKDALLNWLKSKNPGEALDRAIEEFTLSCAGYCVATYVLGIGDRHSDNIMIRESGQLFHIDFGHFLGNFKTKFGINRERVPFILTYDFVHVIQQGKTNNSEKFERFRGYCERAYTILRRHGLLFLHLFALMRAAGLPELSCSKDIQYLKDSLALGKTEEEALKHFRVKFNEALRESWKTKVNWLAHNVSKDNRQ

Row | IC50 (PI3K alpha) | IC50 (PI3K delta) | Compound
1 | 294 nM | 12 nM | COc1ncc(-c2ccnc3ccc(O[C@H]4CCN(C(=O)C5CCS(=O)(=O)CC5)C4)c(C)c23)cc1CF [Example B6, (1,1-Dioxo-hexahydro-1lambda*6*-thiopyran-4-yl)-{(S)-3-[4-(5-fluoromethyl-6-methoxy-pyridin-3-yl)-5-methyl-quinolin-6-yloxy]-pyrrolidin-1-yl}-methanone]
2 | 121 nM | 13 nM | COc1ncc(-c2ccnc3ccc(O[C@H]4CCN(C(=O)c5cn(C)cn5)C4)cc23)cc1C(F)(F)F [Example A26, {(S)-3-[4-(6-Methoxy-5-trifluoromethyl-pyridin-3-yl)-quinolin-6-yloxy]-pyrrolidin-1-yl}-(1-methyl-1H-imidazol-4-yl)-methanone]
3 | 1650 nM | 48 nM | Cc1cc(-c2ccnc3ccc(O[C@H]4CCN(C(=O)C5CCS(=O)(=O)CC5)C4)cc23)cnc1OC(F)F [Example A38, {(S)-3-[4-(6-Difluoromethoxy-5-methyl-pyridin-3-yl)-quinolin-6-yloxy]-pyrrolidin-1-yl}-(1,1-dioxo-hexahydro-1lambda*6*-thiopyran-4-yl)-methanone]
4 | 257 nM | 5 nM | COc1ncc(-c2ccnc3ccc(O[C@H]4CCN(C(=O)[C@@H]5CCN(C(C)=O)C5)C4)cc23)cc1C(F)(F)F [Example A11, 1-((R)-3-{(S)-3-[4-(6-Methoxy-5-trifluoromethyl-pyridin-3-yl)-quinolin-6-yloxy]-pyrrolidine-1-carbonyl}-pyrrolidin-1-yl)-ethanone]
5 | 128 nM | 3 nM | COc1ncc(-c2ccnc3ccc(O[C@H]4CCN(C(=O)C5CCS(=O)(=O)CC5)C4)cc23)cc1F [Example A4, (1,1-Dioxo-hexahydro-1lambda*6*-thiopyran-4-yl)-{(S)-3-[4-(5-fluoro-6-methoxy-pyridin-3-yl)-quinolin-6-yloxy]-pyrrolidin-1-yl}-methanone]
6 | 35 nM | 27 nM | CCC(=O)N1CC[C@H](Oc2ccc3nccc(-c4cnc(N)c(C(F)(F)F)c4)c3c2)C1 [Example A34, 1-{(S)-3-[4-(6-Amino-5-trifluoromethyl-pyridin-3-yl)-quinolin-6-yloxy]-pyrrolidin-1-yl}-propan-1-one]
7 | 3370 nM | 25 nM | Cc1cc(-c2ccnc3ccc(O[C@H]4CCN(C(=O)C5CCOCC5)C4)cc23)cnc1S(C)(=O)=O [Example A33, {(S)-3-[4-(6-Methanesulfonyl-5-methyl-pyridin-3-yl)-quinolin-6-yloxy]-pyrrolidin-1-yl}-(tetrahydro-pyran-4-yl)-methanone]
8 | 745 nM | 43 nM | CS(=O)(=O)c1ncc(-c2ccnc3ccc(O[C@H]4CCN(C(=O)C5CCOCC5)C4)cc23)cc1C(F)(F)F [Example A37, {(S)-3-[4-(6-Methanesulfonyl-5-trifluoromethyl-pyridin-3-yl)-quinolin-6-yloxy]-pyrrolidin-1-yl}-(tetrahydro-pyran-4-yl)-methanone]
9 | 364 nM | 8 nM | COc1ncc(-c2ccnc3ccc(O[C@H]4CCN(C(=O)C5CCS(=O)(=O)CC5)C4)cc23)cc1C#N [Example A22, 5-{6-[(S)-1-(1,1-Dioxo-hexahydro-1lambda*6*-thiopyran-4-carbonyl)-pyrrolidin-3-yloxy]-quinolin-4-yl}-2-methoxy-nicotinonitrile]
10 | 231 nM | < 3 nM | COc1ncc(-c2ccnc3ccc(O[C@H]4CCN(C(=O)c5ccc(=O)[nH]c5)C4)cc23)cc1C [Example A5, 5-{(S)-3-[4-(6-Methoxy-5-methyl-pyridin-3-yl)-quinolin-6-yloxy]-pyrrolidine-1-carbonyl}-1H-pyridin-2-one]
